Active and inactive are the calls of the source. The rule behind the calls is not given here.
Test system: rodent carcinogenicity bioassays, tumor incidence
Test: CCRIS carcinogenicity studies
Details: Dose: 0, Dose: 0
Summary of the method: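 NCI-built, expert-reviewed records of carcinogenicity and related test outcomes (mutagenicity, tumor promotion/inhibition) compiled from published and report sources, historical span 1985-2011, not updated.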

Measured: carcinogen call

CN1C(C(=O)Nc2ccccn2)=C(O)c2sc(Cl)cc2S1(=O)=O
inactive: Species: RAT, Strain/Sex: SPRAGUE-DAWLEY/FEMALE, Route: GAVAGE, 0.0625, 0.125, 0.250 MG/KG BW/D FOR 104 WK, HIGH DOSE REDUCED TO 0.0200 MG/KG FROM STUDY WK 42 TO 50 THEN TO 0.160 MG, 0.0625, 0.125, 0.250 MG/KG BW/D FOR 104 WK, HIGH DOSE REDUCED TO 0.0200 MG/KG FROM STUDY WK 42 TO 50 THEN TO 0.160 MG inactive; negative | Species: RAT, Strain/Sex: SPRAGUE-DAWLEY/MALE, Route: GAVAGE, 0.0625, 0.125, 0.250 MG/KG BW/D FOR 104 WK (STUDY DURATION: 104 WK), 0.0625, 0.125, 0.250 MG/KG BW/D FOR 104 WK (STUDY DURATION: 104 WK) inactive; negative

CC(=O)C(N=Nc1ccc(-c2ccc(N=NC(C(C)=O)C(=O)Nc3ccccc3)c(Cl)c2)cc1Cl)C(=O)Nc1ccccc1 (stereo unspecified)
inactive: Species: MOUSE, Strain/Sex: B6C3F1/FEMALE, Route: ORAL, 2.5, 5% OF DIET, 2.5, 5% OF DIET inactive; negative | Species: MOUSE, Strain/Sex: B6C3F1/MALE, Route: ORAL, 2.5, 5% OF DIET, 2.5, 5% OF DIET inactive; negative | Species: RAT, Strain/Sex: F344/FEMALE, Route: ORAL, 2.5, 5% OF DIET, 2.5, 5% OF DIET inactive; negative | Species: RAT, Strain/Sex: F344/MALE, Route: ORAL, 2.5, 5% OF DIET, 2.5, 5% OF DIET inactive; negative

Source: PubChem BioAssay AID1259411 (Chemical Carcinogenesis Research Information System (CCRIS), 2018)
